Patent publication US11957680B2, “Pyruvate kinase activators for use in treating blood disorders” (Agios Pharmaceuticals, Inc., priority 2017, dated 2024)

Key:
PKR K410E = PKR K410E (Homo sapiens, UniProt P30613, K410E); assay: PKR mutant assay (K410E), AC50, LDH/NADH-coupled, absorbance at 340 nm; format: biochemical; details: for AC50: Table 2, enzyme assay; for EC50: Table 4, AC50, enzyme assay
Outline: (§1)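 Human PKR, wild type or K410E/R510Q mutant (40-400 ng/well), preincubated 60 min at room temperature with compound (11-point 3-fold series from 100 μM, 1% DMSO) in Tris pH 7.5/KCl/MgCl2 buffer with PEP 0.1-0.5 mM, 180 μM NADH, LDH. ADP (0.2-1.65 mM) started the reaction; LDH-coupled NADH consumption followed at 340 nm.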

wild type PKR [1] = biological target: T1, wild type PKR (Homo sapiens, UniProt P30613); assay: Cell based ATP assay in purified red blood cells (Cell-Titer-Glo); design: endogenous in cells; host or cells: purified red blood cells from healthy volunteers; details: overnight at 37° C., ATP levels
Outline: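 RBCs from healthy human donors' K2EDTA blood were leukocyte-depleted by filtration and resuspended in AGAM (PBS, 1% glucose, adenine, mannitol). Cells at 1×10^7 cells/mL were incubated overnight at 37 °C with serially diluted compound at 0.1% DMSO, and ATP was read by Cell-Titer-Glo luminescence.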

wild type PKR [2] = biological target: T1, wild type PKR; assay: PKR (wild type) enzyme AC50 assay, LDH/NADH-coupled, absorbance at 340 nm; format: biochemical; details: for AC50: Table 2, enzyme assay, read-out: PKR WT AC50; for EC50: read-out: PKR WT
Outline: as §1

PKR R510Q = PKR R510Q (Homo sapiens, UniProt P30613, R510Q); assay: PKR mutant assay (R510Q), AC50, LDH/NADH-coupled, absorbance at 340 nm; format: biochemical; details: for AC50: Table 2, enzyme assay, read-out: PK R510Q AC50; for EC50: read-out: PK R510Q
Outline: as §1

PKR K410E, sequence (P30613 whole entry K410E): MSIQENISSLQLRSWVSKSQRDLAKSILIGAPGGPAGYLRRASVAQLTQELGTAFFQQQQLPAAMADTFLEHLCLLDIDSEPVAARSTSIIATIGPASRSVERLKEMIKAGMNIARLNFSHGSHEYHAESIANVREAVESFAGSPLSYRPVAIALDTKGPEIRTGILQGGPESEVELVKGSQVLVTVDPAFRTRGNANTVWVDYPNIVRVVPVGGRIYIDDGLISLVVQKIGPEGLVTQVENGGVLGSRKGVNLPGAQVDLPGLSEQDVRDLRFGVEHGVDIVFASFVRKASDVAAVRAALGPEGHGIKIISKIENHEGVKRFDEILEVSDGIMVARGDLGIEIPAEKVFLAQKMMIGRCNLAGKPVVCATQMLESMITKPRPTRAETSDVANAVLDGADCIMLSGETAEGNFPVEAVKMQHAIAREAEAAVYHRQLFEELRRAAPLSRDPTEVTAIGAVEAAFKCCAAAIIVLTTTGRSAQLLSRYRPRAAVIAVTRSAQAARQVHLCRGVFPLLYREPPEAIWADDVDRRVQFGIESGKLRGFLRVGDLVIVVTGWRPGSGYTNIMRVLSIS
PKR R510Q, sequence (P30613 whole entry R510Q): as the sequence (P30613 whole entry K410E) above, with E410K, R510Q counted along it
T1 sequence (P30613 whole entry): as the sequence (P30613 whole entry K410E) above, with E410K counted along it

Compound	AC50 (PKR K410E) [nM]	AC50 (wild type PKR [1]; Table 2, RBCs) [nM]	AC50 (wild type PKR [2]) [nM]	AC50 (PKR R510Q) [nM]	EC50 (PKR K410E) [nM]	EC50 (wild type PKR [1]; Table 4, AC50, RBCs) [nM]	EC50 (wild type PKR [2]; Table 4, AC50, enzyme assay) [nM]	EC50 (PKR R510Q; Table 4, AC50, enzyme assay) [nM]	other results
Cn1c2nc(C(C)(O)c3cc[nH]n3)sc2c2cnn(Cc3cccc4[nH]ncc34)c(=O)c21 (stereo not shown) [Compound 162]	< 300	≤ 1000	< 300	< 300	–	–	–	–	–
Cn1c2nc(Cc3cccnc3)sc2c2cnn(Cc3cccc4[nH]ncc34)c(=O)c21 [Compound 164]	< 300	≤ 1000	< 300	< 300	–	–	–	–	–
CCOC(=O)c1scnc1Cc1nc2c(s1)c1cnn(Cc3cccc4[nH]ncc34)c(=O)c1n2C [Compound 165]	> 800	≤ 1000	301 to 800	301 to 800	–	–	–	–	–
Cn1c2nc(Cc3ccon3)sc2c2cnn(Cc3cccc4[nH]ncc34)c(=O)c21 [Compound 166]	> 800	> 1000	301 to 800	301 to 800	–	–	–	–	–
Cn1c2nc(Cc3ncsc3CO)sc2c2cnn(Cc3cccc4[nH]ncc34)c(=O)c21 [Compound 167]	< 300	≤ 1000	< 300	< 300	–	–	–	–	–
Cn1c2nc(Cc3csc(CO)n3)sc2c2cnn(Cc3cccc4[nH]ncc34)c(=O)c21 [Compound 168]	< 300	≤ 1000	< 300	< 300	–	–	–	–	–
COc1cccc(Cc2nc3c(s2)c2cnn(Cc4cccc5[nH]ncc45)c(=O)c2n3C)n1 [Compound 169]	< 300	≤ 1000	< 300	< 300	–	–	–	–	–
Cn1c2nc(Cc3cccc(=O)[nH]3)sc2c2cnn(Cc3cccc4[nH]ncc34)c(=O)c21 [Compound 170]	< 300	≤ 1000	< 300	< 300	–	–	–	–	–
COC(=O)C(c1cc[nH]n1)c1nc2c(s1)c1cnn(Cc3cccc4[nH]ncc34)c(=O)c1n2C (stereo not shown) [Compound 171]	301 to 800	≤ 1000	> 800	> 800	–	–	–	–	–
Cn1c2nc(Cc3n[nH]cc3C(F)(F)F)sc2c2cnn(Cc3cccc4[nH]ncc34)c(=O)c21 [Compound 172]	> 800	> 1000	> 800	> 800	–	–	–	–	–
COc1ccc(Cc2nc3c(s2)c2cnn(Cc4cccc5[nH]ncc45)c(=O)c2n3C)cn1 [Compound 173]	< 300	≤ 1000	< 300	< 300	–	–	–	–	–
Cn1c2nc(Cc3ccc(=O)[nH]c3)sc2c2cnn(Cc3cccc4[nH]ncc34)c(=O)c21 [Compound 174]	301 to 800	–	> 800	> 800	–	–	–	–	Cell based ATP assay AC50 (wild type PKR [1]; Table 2, RBCs): No Fit
Cn1c2nc(Cc3cc[nH]n3)sc2c2cnn(Cc3ccc(C#N)cc3)c(=O)c21 [Compound 175]	< 300	≤ 1000	< 300	< 300	–	–	–	–	–
Cn1c2nc(Cc3cc[nH]n3)sc2c2cnn(Cc3ccc(C(N)=O)cc3)c(=O)c21 [Compound 176]	> 800	> 1000	> 800	> 800	–	–	–	–	–
Cn1c2nc(C(N)c3cc[nH]n3)sc2c2cnn(Cc3cccc4[nH]ncc34)c(=O)c21 (stereo not shown) [Compound 177]	< 300	≤ 1000	< 300	< 300	–	–	–	–	–
CC(=O)NC(c1cc[nH]n1)c1nc2c(s1)c1cnn(Cc3cccc4[nH]ncc34)c(=O)c1n2C (stereo not shown) [Compound 178]	> 800	> 1000	> 800	> 800	–	–	–	–	–
Cn1c2nc(NC(=O)Cc3cc[nH]n3)sc2c2cnn(Cc3cccc4[nH]ncc34)c(=O)c21 [Compound 180]	> 800	> 1000	> 800	> 800	–	–	–	–	–
Cn1c2nc(Cc3cccc4cn[nH]c34)sc2c2cnn(Cc3cccc4[nH]ncc34)c(=O)c21 [Compound 181]	< 300	≤ 1000	< 300	< 300	–	–	–	–	–
Cn1c2nc(Cc3cc[nH]n3)sc2c2cnn(Cc3cccc(C#N)c3)c(=O)c21 [Compound 182]	< 300	≤ 1000	< 300	< 300	–	–	–	–	–
Cn1c2nc(Cc3cc[nH]n3)sc2c2cnn(Cc3cccc(C(N)=O)c3)c(=O)c21 [Compound 183]	< 300	≤ 1000	< 300	< 300	–	–	–	–	–
Cn1c2nc(Cc3cn[nH]c3)sc2c2cnn(Cc3cccc4[nH]ncc34)c(=O)c21 [Compound 184]	< 300	≤ 1000	< 300	< 300	–	–	–	–	–
Cn1c2nc(Cc3cnoc3)sc2c2cnn(Cc3cccc4[nH]ncc34)c(=O)c21 [Compound 185]	301 to 800	> 1000	> 800	301 to 800	–	–	–	–	–

Compound	AC50 (PKR K410E) [nM]	AC50 (wild type PKR [1]; Table 2, RBCs) [nM]	AC50 (wild type PKR [2]) [nM]	AC50 (PKR R510Q) [nM]	EC50 (PKR K410E) [nM]	EC50 (wild type PKR [1]; Table 4, AC50, RBCs) [nM]	EC50 (wild type PKR [2]; Table 4, AC50, enzyme assay) [nM]	EC50 (PKR R510Q; Table 4, AC50, enzyme assay) [nM]	other results
Cn1cc(Cc2nc3c(s2)c2cnn(Cc4cccc5[nH]ncc45)c(=O)c2n3C)cn1 [Compound 186]	–	–	–	–	> 800	≤ 1000	> 800	301 to 800	–
Cn1c2nc(-n3cnc(CS(=O)(=O)c4ccccc4)c3)sc2c2cnn(Cc3cccc4[nH]ncc34)c(=O)c21 [Compound 187]	–	–	–	–	> 800	–	–	–	Cell based ATP assay (wild type PKR [1]; Table 4, AC50, RBCs): No Fit; PKR WT (wild type PKR [2]; Table 4, AC50, enzyme assay): No Fit; PK R510Q (PKR R510Q; Table 4, AC50, enzyme assay): No Fit
CC(=O)c1cccc(Cn2ncc3c4sc(Cc5cc[nH]n5)nc4n(C)c3c2=O)c1 [Compound 190]	–	–	–	–	< 300	≤ 1000	< 300	< 300	–
CC(=O)c1cccc(CC(c2cc[nH]n2)c2nc3c(s2)c2cnn(Cc4cccc(C(C)=O)c4)c(=O)c2n3C)c1 (stereo not shown) [Compound 192]	–	–	–	–	> 800	> 1000	> 800	> 800	–
Cn1c2nc(Cc3cc[nH]n3)sc2c2cnn(Cc3ccccc3)c(=O)c21 [Compound 193]	–	–	–	–	< 300	≤ 1000	< 300	< 300	–
CC(c1cc[nH]n1)c1nc2c(s1)c1cnn(Cc3cccc4[nH]ncc34)c(=O)c1n2C (stereo not shown) [Compound 195]	–	–	–	–	< 300	≤ 1000	< 300	< 300	–
Cn1c2nc(Cc3ncsc3C(N)=O)sc2c2cnn(Cc3cccc4[nH]ncc34)c(=O)c21 [Compound 196]	–	–	–	–	< 300	≤ 1000	< 300	< 300	–
Cn1c2nc(Cc3cc[nH]n3)sc2c2cnn(Cc3nccc4[nH]ncc34)c(=O)c21 [Compound 199]	–	–	–	–	< 300	≤ 1000	< 300	< 300	–
Cn1c2nc(Cc3cc[nH]c(=O)c3)sc2c2cnn(Cc3cccc4[nH]ncc34)c(=O)c21 [Compound 200]	–	–	–	–	< 300	≤ 1000	< 300	> 800	–
Cn1ncc2c(Cn3ncc4c5sc(Cc6cc[nH]n6)nc5n(C)c4c3=O)cccc21 [Compound 201]	–	–	–	–	< 300	≤ 1000	< 300	< 300	–
Cn1c2nc(Cc3cc[nH]n3)sc2c2cnn(Cc3cccc4nn[nH]c34)c(=O)c21 [Compound 202]	–	–	–	–	< 300	≤ 1000	< 300	< 300	–
Cn1c2nc(Cc3c[nH]cn3)sc2c2cnn(Cc3cccc4[nH]ncc34)c(=O)c21 [Compound 205]	–	–	–	–	< 300	≤ 1000	< 300	< 300	–
Cn1c2nc(Cc3csc(C(N)=O)n3)sc2c2cnn(Cc3cccc4[nH]ncc34)c(=O)c21 [Compound 206]	–	–	–	–	> 800	> 1000	> 800	> 800	–
COc1ncc(Cc2nc3c(s2)c2cnn(Cc4cccc5[nH]ncc45)c(=O)c2n3C)cn1 [Compound 207]	–	–	–	–	301 to 800	≤ 1000	301 to 800	> 800	–
CN(c1csc(Cc2cnc(=O)[nH]c2)n1)c1ccnn(Cc2cccc3[nH]ncc23)c1=O [Compound 208]	–	–	–	–	> 800	> 1000	> 800	> 800	–
Cn1c2nc(Cc3ccns3)sc2c2cnn(Cc3cccc4[nH]ncc34)c(=O)c21 [Compound 209]	–	–	–	–	> 800	≤ 1000	> 800	> 800	–
Cn1c2nc(Cc3cc[nH]n3)sc2c2cnn(Cc3ccc4ccccc4c3)c(=O)c21 [Compound 210]	–	–	–	–	< 300	≤ 1000	< 300	< 300	–
Cn1c2nc(Cc3cncs3)sc2c2cnn(Cc3cccc4[nH]ncc34)c(=O)c21 [Compound 211]	–	–	–	–	< 300	≤ 1000	< 300	< 300	–
Cn1c2nc(C(C(N)=O)c3cc[nH]n3)sc2c2cnn(Cc3cccc4[nH]ncc34)c(=O)c21 (stereo not shown) [Compound 212]	–	–	–	–	< 300	≤ 1000	< 300	< 300	–
Cn1c2nc(Cc3cc[nH]n3)sc2c2cnn(Cc3cn4cccnc4n3)c(=O)c21 [Compound 213]	–	–	–	–	301 to 800	≤ 1000	301 to 800	301 to 800	–
COc1cc(Cc2nc3c(s2)c2cnn(Cc4cccc5[nH]ncc45)c(=O)c2n3C)ccn1 [Compound 215]	–	–	–	–	< 300	≤ 1000	< 300	< 300	–
